What is called IC50 is the concentration that gives 50% inhibition. For orientation: EC50 means the concentration that produces a half-maximal response.

Read-outs that look alike come from different tables or passages of the source. Where only a bound is given, the exact number is not on record here.

Here are results for 10 molecules from patent publication US20080269279A1, “Substituted furo[2,3-B] pyridine derivatives as cannabinoid-1 receptor modulators” (priority 2007, published 2008).

Assay [1] concerns the target T1, recombinant human CB1 receptor (Homo sapiens, UniProt P21554).
T1 construct: expressed in transfected cells
Description: Cannabinoid Receptor-1 (CB1) Binding Assay ([3H]CP-55940 displacement). As for the experimental part:
Binding affinity determination is based on recombinant human CB1 receptor expressed in Chinese Hamster Ovary (CHO) cells (Felder et al, Mol. Pharmacol. 48: 443-450, 1995). Total assay volume is 250 μl (240 μl CB1 receptor membrane solution plus 5 μl test compound solution plus 5 μl [3H]CP-55940 solution). Final concentration of [3H]CP-55940 is 0.6 nM. Binding buffer contains 50 mM Tris-HCl, pH 7.4, 2.5 mM EDTA, 5 mM MgCl2, 0.5 mg/mL fatty acid free bovine serum albumin and protease inhibitors (Cat#P8340, from Sigma). To initiate the binding reaction, 5 μl of radioligand solution is added, the mixture is incubated with gentle shaking on a shaker for 1.5 h at 30° C. The binding is terminated by using 96-well harvester and filtering through GF/C filter presoaked in 0.05% polyethylenimine. The bound radiolabel is quantitated using scintillation counter. Apparent binding affinities for various compounds are calculated from IC50 values (DeBlasi et al., Trends Pharmacol Sci 10: 227-229, 1989).

For assay [2], the target named is T1, recombinant human CB1 receptor. In words: Cannabinoid Receptor-1 (CB1) Functional Activity Assay (intracellular cAMP in CB1-CHO cells). It counts as cell-based. The following applies: for functional mode at CB1 receptor: CB1 functional activity assay, cAMP. As to the method: The functional activation of CB1 receptor is based on recombinant human CB1 receptor expressed in CHO cells (Felder et al, Mol. Pharmacol. 48: 443-450, 1995). To determine the agonist activity or inverse agonist activity of any test compound, 50 ul of CB1-CHO cell suspension are mixed with test compound and 70 ul assay buffer containing 0.34 mM 3-isobutyl-1-methylxanthine and 5.1 uM of forskolin in 96-well plates. The assay buffer is comprised of Earle's Balanced Salt Solution supplemented with 5 mM MgCl2 1 mM glutamine, 10 mM HEPES, and 1 mg/mL bovine serum albumin. The mixture is incubated at room temperature for 30 minutes, and terminated by adding 30 ul/well of 0.5M HCl. The total intracellular cAMP level is quantitated using the New England Nuclear Flashplate and cAMP radioimmunoassay kit.
To determine the antagonist activity of test compound, the reaction mixture also contains 0.5 nM of the agonist CP55940 (or 50 nM of methanandamide), and the reversal of the CP55940 (or methanandamide) effect is quantitated with increasing concentration of the test compound. Intracellular cAMP is determined as described above. An IC50 value for the test compound is calculated from the titration curve.

For assay [3], the system named is human GABA α1β3β2 receptors. Description: GABAa, 3H-muscimol binding assay. Particulars: activity at 10 μM as percentage of activity of control compound P18 at 10 μM (increase of 3H-muscimol binding). As for the experimental part: Membranes from recombinant Ltk cells expressing human GABA α1β3β2 receptors were suspended in an ice-cold solution of 100 mM KCl, 10 mM KH2PO4, adjusted to pH=7.4 with 1 M KOH. Tritiated muscimol (PerkinElmer, Wellesley, Mass.) at a concentration of 2 nM, and serial five-fold dilutions of test compounds at 10 μM, 2.0 μM, 400 nM, 80 nM, 16 nM, 3.2 nM, 0.64 nM and 0.13 nM were mixed in 96-well plates containing 200 μL of membrane suspension. Cold muscimol and compound P18 were used as negative and positive controls respectively. The assay mixture was incubated at 4° C. for 2 hours, then harvested on GF/C filter plates and washed with ice-cold 50 mM Tris-Ci buffer. The filter plates were dried and counted in a Wallac MicroBeta® Trilux detector (Model 1450-030; PerkinElmer, Wellesley, Mass.), and the data were downloaded and analyzed using Prism 3.0. The activity of compound P18 at 10 μM was used as reference for the test compounds, and it was expressed as increasing ^3H-muscimol binding by 100%, whereas cold muscimol at 2 μM antagonized ^3H-muscimol binding by 100%. The tested compound's activity at 10 μM was expressed as a percentage of compound P18's activity at 10 μM.
As a reference, the parent compound (the compound not substituted with a R^4 heteroaryl, such as pyrazole or 1,2,4-oxadiazole, as indicated below) is also shown with its Gamma Amino Butyric Acid (GABA) Receptor activity. […] As a result, the compounds of the present invention in which R^4 is a heteroaryl, such as pyrazole or 1,2,4-oxadiazole, have the unexpected benefits of minimizing off target activity at the GABA receptor.
Note: % GABA is defined as the GABA activity of the indicated compound expressed as a percentage of the activity of control compound P18. NA=data not available.

Setting [4] is: recombinant human CB1 receptor expressed in CHO cells, 0.6 nM [3H]CP-55940, read-out: CB1 binding IC50.
Where [5] appears, read: CB1-CHO cells, forskolin-stimulated cAMP, read-out: EC50 in the CB1 functional activity assay.

T1 sequence (P21554 whole entry): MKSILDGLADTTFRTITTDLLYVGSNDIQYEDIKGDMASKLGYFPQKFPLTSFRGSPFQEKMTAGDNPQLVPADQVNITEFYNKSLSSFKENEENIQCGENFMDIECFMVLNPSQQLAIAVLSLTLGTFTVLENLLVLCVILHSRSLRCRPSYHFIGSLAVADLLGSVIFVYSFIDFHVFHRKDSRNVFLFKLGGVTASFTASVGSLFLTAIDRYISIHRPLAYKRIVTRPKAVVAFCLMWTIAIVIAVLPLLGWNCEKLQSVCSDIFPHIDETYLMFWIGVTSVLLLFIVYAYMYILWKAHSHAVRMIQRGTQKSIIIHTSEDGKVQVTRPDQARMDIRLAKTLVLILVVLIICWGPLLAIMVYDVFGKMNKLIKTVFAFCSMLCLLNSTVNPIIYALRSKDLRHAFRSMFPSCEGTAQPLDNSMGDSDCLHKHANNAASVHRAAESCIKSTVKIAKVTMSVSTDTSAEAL

Regarding `CC(=O)Nc1c(C(=O)C(C)(C)O)oc2nc(-c3ccc(-c4cn[nH]c4)cc3Cl)c(-c3ccc(Cl)cc3)cc12` [Example 1, N-[5-(4-Chlorophenyl)-6-[2-chloro-4-(1H-pyrazol-4-yl)phenyl]-2-(2-hydroxy-2-methylpropanoyl)furo[2,3-b]pyridin-3-yl]acetamide], in assay [1] (setting [4]), the IC50 worked out at 2 nM. Moreover, in assay [2] (setting [5]), the half-maximal effective concentration (EC50) is under 20 nM. Besides, the “functional mode at CB1 receptor” value in assay [2] was “functional inverse agonists”. Moreover, in assay [3], the “% GABA Example” value is 38%.

Regarding `CC(=O)Nc1c(C(=O)C(C)C)oc2nc(-c3ccc(-c4cc[nH]n4)cc3Cl)c(-c3ccc(Cl)cc3)cc12` [Example 2, N-{5-(4-Chlorophenyl)-6-[2-chloro-4-(1H-pyrazol-3-yl)phenyl]-2-isobutyrylfuro[2,3-b]pyridin-3-yl}acetamide], in assay [1] (setting [4]), the concentration for half-maximal inhibition (IC50) is 6 nM. Further, the EC50 in assay [2] (setting [5]) is under 20 nM. In addition, the “functional mode at CB1 receptor” value in assay [2] is “functional inverse agonists”. In assay [3], the “% GABA Example” value is reported as 17%.

Turning to `Cc1n[nH]cc1-c1ccc(-c2nc3oc(C(=O)C(C)(C)C)c(C(N)=O)c3cc2-c2ccc(Cl)cc2)c(Cl)c1` [Example 3, 6-[2-chloro-4-(3-methyl-1H-pyrazol-4-yl)phenyl]-5-(4-chlorophenyl)-2-(2,2-dimethylpropanoyl)furo[2,3-b]pyridine-3-carboxamide], in assay [1] (setting [4]), the half-maximal inhibitory concentration (IC50) stood at 1 nM. The 50% effective concentration (EC50) in assay [2] (setting [5]) is under 20 nM. Moreover, the “functional mode at CB1 receptor” value in assay [2] was “functional inverse agonists”. Moreover, in assay [3], the “% GABA Example” value amounted to 9%.

As to `CC(C)(C)C(=O)c1oc2nc(-c3ccc(-c4cn[nH]c4)cc3Cl)c(-c3ccc(Cl)cc3)cc2c1N` [Example 7, 1-{3-Amino-5-(4-chlorophenyl)-6-[2-chloro-4-(1H-pyrazol-4-yl)phenyl]furo[2,3-b]pyridin-2-yl}-2,2-dimethylpropan-1-one], the half-inhibitory concentration (IC50) in assay [1] (setting [4]) was 1 nM. In addition, the EC50 in assay [2] (setting [5]) is under 20 nM. Moreover, in assay [2], the “functional mode at CB1 receptor” value is reported as “functional inverse agonists”. The “% GABA Example” value in assay [3] is recorded as 17%.

Turning to `Cc1c(S(=O)(=O)C(C)(C)C)oc2nc(-c3ccc(-c4cn[nH]c4)cc3Cl)c(-c3ccc(Cl)cc3)cc12` [Example 11, 2-(Tert-butylsulfonyl)-5-(4-chlorophenyl)-6-[2-chloro-4-(1H-pyrazol-4-yl)phenyl]-3-methylfuro[2,3-b]pyridine], the IC50 in assay [1] (setting [4]) came to 1 nM. In addition, in assay [2] (setting [5]), the 50% effective concentration (EC50) is under 20 nM. The “functional mode at CB1 receptor” value in assay [2] is “functional inverse agonists”. For the same molecule, the “% GABA Example” value in assay [3] is reported as 7%.

With `Cc1n[nH]cc1-c1ccc(-c2nc3oc(C(=O)C(C)(C)C)c(CO)c3cc2-c2ccc(Cl)cc2)c(Cl)c1` [Example 37, 1-[6-[2-Chloro-4-(3-methyl-1H-pyrazol-4-yl)phenyl]-5-(4-chlorophenyl)-3-(hydroxymethyl)furo[2,3-b]pyridin-2-yl]-2,2-dimethylpropan-1-one], the IC50 in assay [1] (setting [4]) came to 1 nM. For the same molecule, the half-maximal effective concentration (EC50) in assay [2] (setting [5]) is under 20 nM. Besides, the “functional mode at CB1 receptor” value in assay [2] is listed as “functional inverse agonists”. For the same molecule, the “% GABA Example” value in assay [3] came to 14%.

Regarding `CC(=O)c1c(C(=O)C(C)C)oc2nc(-c3ccc(-c4c[nH]nc4C)cc3Cl)c(-c3ccc(Cl)cc3)cc12` [Example 38, 1-[3-Acetyl-6-[2-chloro-4-(3-methyl-1H-pyrazol-4-yl)phenyl]-5-(4-chlorophenyl)furo[2,3-b]pyridin-2-yl]-2-methylpropan-1-one], in assay [1] (setting [4]), the IC50 was found to be 3 nM. Besides, the EC50 in assay [2] (setting [5]) is under 20 nM. Also, the “functional mode at CB1 receptor” value in assay [2] is “functional inverse agonists”. Further, in assay [3], the “% GABA Example” value came to 39%.

Take `CC(=O)c1c(C(=O)C(C)(C)C)oc2nc(-c3ccc(-c4c[nH]nc4C)cc3Cl)c(-c3ccc(Cl)cc3)cc12` [Example 40, 1-[3-Acetyl-6-[2-chloro-4-(3-methyl-1H-pyrazol-4-yl)phenyl]-5-(4-chlorophenyl)furo[2,3-b]pyridin-2-yl]-2,2-dimethylpropan-1-one]: the IC50 in assay [1] is 1 nM. For the same molecule, in assay [2], the EC50 is under 20 nM and the “functional mode at CB1 receptor” value is given as “functional inverse agonists”. In assay [3], the “% GABA Example” value is recorded as 12%.

With `CC(=O)Nc1c(C(=O)C(C)(C)O)oc2nc(-c3ccc(-c4c[nH]nc4C)cc3Cl)c(-c3ccc(Cl)cc3)cc12` [Example 41, N-[6-[2-Chloro-4-(3-methyl-1H-pyrazol-4-yl)phenyl]-5-(4-chlorophenyl)-2-(2-hydroxy-2-methylpropanoyl)furo[2,3-b]pyridin-3-yl]acetamide], the IC50 in assay [1] (setting [4]) came to 5 nM. Further, the concentration for a half-maximal effect (EC50) in assay [2] (setting [5]) is under 20 nM. For the same molecule, the “functional mode at CB1 receptor” value in assay [2] was “functional inverse agonists”. Also, the “% GABA Example” value in assay [3] was determined as 35%.

With `CC(C)(C)C(=O)c1oc2nc(-c3ccc(-c4ncon4)cc3Cl)c(-c3ccc(Cl)cc3)cc2c1NC(=O)CO` [Example 43, N-[6-[2-Chloro-4-(1,2,4-oxadiazol-3-yl)phenyl]-5-(4-chlorophenyl)-2-(2,2-dimethylpropanoyl)furo[2,3-b]pyridin-3-yl]-2-hydroxyacetamide], the IC50 in assay [1] (setting [4]) came to 0.4 nM. In addition, the EC50 in assay [2] (setting [5]) was under 20 nM. In assay [2], the “functional mode at CB1 receptor” value is “functional inverse agonists”. Besides, the “% GABA Example” value in assay [3] is recorded as 41%.
